Results as given in article PMC11272598, “RG7774 (Vicasinabin), an orally bioavailable cannabinoid receptor 2 (CB2R) agonist, decreases retinal vascular permeability, leukocyte adhesion, and ocular inflammation in animal models” (Frontiers in Pharmacology, 2024).
Like-named read-outs stand apart in the source and are kept apart here.

How the values were obtained:
[1] = system: sigma (non-selective) (h); experiment: CEREP radioligand binding; parameters: species or system human; conditions: radioligand [^3H]-DTG
Text: Supplement Table1.docx, table 3: Supplementary Table S3. RG7774 binding to non-CB1R/CB2R receptors, ion channels, transporters, and enzymes (CEREP, Celle l’Evescault, France; http://www.cerep.fr). | column: % inhibition of control SB (n = 2)

Hepatocyte clearance = assay type: in vitro ADME; conditions: read-out: Hepatocyte CL
Description: For animals, hepatocyte suspension cultures were either freshly prepared by liver perfusion or from cryopreserved hepatocyte batches (BioIVT, NY, USA). For humans, commercially-available, pooled (5–20 donors), cryopreserved human hepatocytes from nontransplantable liver tissues were used (BioIVT). Suspension cultures were incubated in Nunc U96 PP-0.5 mL plates (Nunc Natural, 267245) in a Thermo Forma incubator (Fischer Scientific, Wohlen, Switzerland) equipped with Variomag® Teleshake shakers (Sterico, Wangen, Switzerland) to maintain cell dispersion. The cell culture medium was William’s media supplemented with glutamine, antibiotics, insulin, dexamethasone, and 10% FCS. RG7774 (1 μM) were incubated in 96-well plates containing suspension cultures (1 × 10^6 hepatocytes/mL [~1 mg/mL protein concentration]), with each well containing a total volume of 100 μL. Plates were shaken at 900 rpm for up to 2 h in 5% CO2 at 37 °C. Reactions were quenched after 3, 6, 10, 20, 40, 60, and 120 min with 200 μL methanol containing an internal standard. Samples were cooled, centrifuged, and analyzed by LC-MS/MS. Log peak area ratios (test compound peak area/internal standard peak area) or concentrations were plotted against incubation time using a linear fit to the data with emphasis on the initial rate of compound disappearance.

Human 12-LOX = target: T1, Human 12-LOX (Homo sapiens, UniProt P18054); experiment: Human 12-LOX assay; assay type: biochemical; conditions: RG7774 10 µM; read-out: Mean ± SEM % inhibition of control, Human 12-LOX
T1 construct: human platelet-derived 12-LOX; from tissue; host or cells: human platelets
Description: The inhibitory effects of different concentrations of RG7774 (0.1-500 µM) on the activities of human recombinant 5-LOX (Cayman Chemical Company #60402), 15-LOX (Cayman Chemical Company #10011263), and human platelet-derived 12-LOX were determined using the Biovision Lipoxygenase Activity Assay Kit (#BVN-K978-100). This kit converts the LOX substrate to an intermediate that reacted with the probe, generating a fluorescent product. The effect of RG7774 (preincubated for 15 min) at 10 µM on LOXs (5-LOX: 0.5 or 1.2 µg; 12-LOX: 20 µg; 15-LOX: 0.23 or 0.3 µg) was ascertained by adding the compounds directly to the incubation medium and the fluorescent signal, recorded at excitation/emission 500/536 nm at 30 sec intervals for 30-40 min, was directly proportional to LOX activity. […] The percentage of human 5-, 12-, and 15-LOX activity (control) was estimated from the amount of oxidized probe in the reaction using a standard curve.

Ocular tissue PK in rats = assay type: in vivo; conditions: 26 days of oral administration, 3 and 30 mg/kg/day
Description: The plasma PK profile of RG7774 was assessed in adult male C57BL/6J mice and female Wistar rats (Charles River, Cologne, Germany) housed in a controlled environment (temperature, humidity, and 12 h light/dark cycle) with unrestricted access to food and water. The ocular PK profile of RG7774 was assessed in adult female […] rats (Charles River, Mattawan, MI, United States) housed in a controlled environment (21°C–22°C temperature, 40%–60%, humidity, and 12 h light/dark cycle) with unrestricted access to food and water and conducted according to local regulations by EyeCRO (Ann Arbor, MI, United States).
[…] […] Samples were collected from the tail vein or via heart puncture (terminal) and prepared within 30 min of collection by centrifugation at 3,000 g for 5 min at 4°C and were immediately frozen. RG7774 concentrations in plasma and homogenized tissues were determined using LC-MS/MS. PK parameters were estimated by non-compartmental analysis of plasma data using Phoenix WinNonlin software (Certara, Princeton, NJ, United States).

human CB1R = human CB1R (Homo sapiens, UniProt P21554); experiment: Competition binding, [^3H]-CP55940, CHO cell membranes; parameters: expressed in transfected cells; host or cells: CHO cells (membranes); conditions: CHO cells
Description: Competition and saturation binding assays were performed using the radiolabeled CB1R/CB2R agonist [^3H]-CP55940 (PerkinElmer, Waltham, MA, United States) in recombinant cell systems, and the newly developed CB2R-selective agonist [^3H]-RO6753361 ([Chicca et al., 2024]) in cells expressing endogenous CB1R/CB2R. Competition assays were conducted by incubating 5, 40, or 40 µg of membrane protein from CHO cells, Jurkat cells or spleen cells, respectively, with 1.5 nM [^3H]-CP55940 or 1.5 nM [^3H]-RO6753361 in the presence or absence of increasing concentrations of ligand (RG7774 or control) for 2 h at 30°C in a final volume of 0.2 mL of assay buffer (50 mmol/L Tris-HCl, 5 mmol/L MgCl2, 2.5 mmol/L EDTA, and 0.5% fatty acid-free BSA [pH 7.4] and 1% DMSO), with gentle shaking. Saturation binding assays were conducted by incubating 1–3 μg, 40 μg, or 30–40 μg of membrane protein from CHO cells, Jurkat cells, or spleen tissue, respectively, with 12 concentrations in the range of 80–0.039 nM [^3H]-CP55940 or [^3H]-RO6753361 for 2 h at 30°C in a final volume of 0.2 mL/well of assay buffer without DMSO. […] IC50 values and Hill slopes were determined with a 4-parameter logistic model using ActivityBase (ID Business Solution, Guilford, United Kingdom) and pKi values were determined using the Cheng-Prusoff equation ([Cheng and Prusoff, 1973]).

Sequence of human CB1R (P21554 whole entry): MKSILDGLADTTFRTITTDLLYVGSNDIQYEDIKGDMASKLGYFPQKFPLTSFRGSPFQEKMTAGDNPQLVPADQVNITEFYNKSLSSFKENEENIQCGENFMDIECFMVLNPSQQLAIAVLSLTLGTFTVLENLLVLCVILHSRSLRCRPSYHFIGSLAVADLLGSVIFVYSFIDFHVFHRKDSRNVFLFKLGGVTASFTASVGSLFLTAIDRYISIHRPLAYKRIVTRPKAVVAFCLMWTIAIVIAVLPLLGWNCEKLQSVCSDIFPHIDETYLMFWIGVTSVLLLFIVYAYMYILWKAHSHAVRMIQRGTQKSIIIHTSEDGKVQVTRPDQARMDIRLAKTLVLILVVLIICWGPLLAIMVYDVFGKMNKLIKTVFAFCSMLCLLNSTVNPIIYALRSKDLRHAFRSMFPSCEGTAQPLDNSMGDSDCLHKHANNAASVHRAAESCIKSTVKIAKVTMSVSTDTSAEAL
T1 sequence (P18054 whole entry): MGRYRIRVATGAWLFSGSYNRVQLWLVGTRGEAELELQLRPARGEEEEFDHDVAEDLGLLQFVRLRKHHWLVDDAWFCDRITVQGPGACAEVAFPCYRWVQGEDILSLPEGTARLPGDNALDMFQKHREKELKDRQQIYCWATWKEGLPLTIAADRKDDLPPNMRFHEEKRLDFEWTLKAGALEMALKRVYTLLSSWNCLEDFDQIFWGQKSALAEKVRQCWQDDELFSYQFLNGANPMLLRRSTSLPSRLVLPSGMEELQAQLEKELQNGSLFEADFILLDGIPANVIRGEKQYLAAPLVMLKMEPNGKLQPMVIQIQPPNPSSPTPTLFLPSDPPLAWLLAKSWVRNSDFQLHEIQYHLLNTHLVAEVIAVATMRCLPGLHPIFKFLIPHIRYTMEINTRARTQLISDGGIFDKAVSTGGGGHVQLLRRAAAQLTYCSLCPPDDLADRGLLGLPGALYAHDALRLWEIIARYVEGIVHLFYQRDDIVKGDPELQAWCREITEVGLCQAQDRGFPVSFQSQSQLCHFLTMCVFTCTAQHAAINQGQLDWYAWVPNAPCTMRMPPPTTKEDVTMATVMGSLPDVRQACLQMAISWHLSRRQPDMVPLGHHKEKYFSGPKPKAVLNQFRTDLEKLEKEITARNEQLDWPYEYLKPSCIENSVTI

For Cn1nnnc1Cn1nnc2c(N3CC[C@H](O)C3)nc(C(C)(C)C)nc21 [RG7774, (S)-1-(5-tert-butyl-3-[(1-methyl-1H-tetrazol-5-yl)methyl]-3H-[1,2,3]triazolo[4,5-d]pyrimidin-7-yl)pyrrolidin-3-ol], the “% inhibition of control SB (n = 2)” value [1] was “–8.2%”, the hepatocyte CLint at 1 µM (Hepatocyte clearance; human, pooled cryopreserved human hepatocytes in suspension) was 1.7 µL/min/1e6 cells and the hepatocyte CLint at 1 µM (Hepatocyte clearance; mouse) was 49.3 µL/min/1e6 cells. For the same compound, the hepatocyte CLint at 1 µM (Hepatocyte clearance; rat) was 37.9 µL/min/1e6 cells, the inhibition at 10 µM (Human 12-LOX) was 1.5 ± 1.8% and the “concentrations in retina and choroid/retinal pigment epithelium tissues relative to plasma” value (Ocular tissue PK in rats) was “in the same range as the total plasma concentration”. The “exposure in the vitreous humor relative to plasma” value (Ocular tissue PK in rats) was “closer to that found in free plasma” and the “binding to recombinant human CB1R” value (human CB1R) was “no binding”.
